Test results: patent US8735426B2, “Vanilloid receptor ligands, pharmaceutical compositions containing them, process for making them and use thereof for treating pain and other conditions” (Gruenenthal GmbH, priority 2007, dated 2014)

What was measured:
Type in all cases: cell-based
[1] = molecular target: T1, vanilloid receptor 1 (VR1/TRPV1) (Rattus norvegicus, UniProt O35433); experiment: Functional FLIPR Ca2+ influx assay on vanilloid receptor 1, capsaicin stimulus (Pharmacological Method I)
T1 construct: The vertebral column is removed from decapitated rats; from tissue; host or cells: primary cells from rat dorsal root ganglia (DRG)
T1 sequence (O35433 whole entry): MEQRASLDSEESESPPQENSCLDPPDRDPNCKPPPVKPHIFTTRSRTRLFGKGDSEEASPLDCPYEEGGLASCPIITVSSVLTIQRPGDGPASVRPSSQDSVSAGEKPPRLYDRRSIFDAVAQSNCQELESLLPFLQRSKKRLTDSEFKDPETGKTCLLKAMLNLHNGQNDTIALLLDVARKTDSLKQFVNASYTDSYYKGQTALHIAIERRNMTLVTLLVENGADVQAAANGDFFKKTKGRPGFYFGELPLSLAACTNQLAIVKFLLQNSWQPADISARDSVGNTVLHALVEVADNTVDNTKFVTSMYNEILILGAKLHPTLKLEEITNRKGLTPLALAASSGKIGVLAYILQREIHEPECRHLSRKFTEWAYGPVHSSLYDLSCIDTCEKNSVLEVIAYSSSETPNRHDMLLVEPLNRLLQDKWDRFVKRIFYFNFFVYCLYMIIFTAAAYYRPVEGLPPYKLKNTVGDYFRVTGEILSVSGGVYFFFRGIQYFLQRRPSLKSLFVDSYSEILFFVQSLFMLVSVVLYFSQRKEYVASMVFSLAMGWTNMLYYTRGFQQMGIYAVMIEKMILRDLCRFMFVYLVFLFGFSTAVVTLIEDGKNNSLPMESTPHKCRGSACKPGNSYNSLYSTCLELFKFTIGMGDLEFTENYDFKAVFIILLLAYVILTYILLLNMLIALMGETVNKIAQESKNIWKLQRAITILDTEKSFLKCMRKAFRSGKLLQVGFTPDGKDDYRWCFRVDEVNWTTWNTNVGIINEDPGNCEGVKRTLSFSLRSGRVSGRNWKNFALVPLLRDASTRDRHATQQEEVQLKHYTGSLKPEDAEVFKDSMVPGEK

[2] = molecular target: vanilloid receptor 1 (VR1/TRPV1-Receptor) (Homo sapiens, UniProt Q8NER1); experiment: VR1 functional assay following pH-stimulus; settings: read-out: inhibition (in percent), Human following pH-stimulus
Chain of vanilloid receptor 1 (VR1/TRPV1-Receptor) (Q8NER1 whole entry): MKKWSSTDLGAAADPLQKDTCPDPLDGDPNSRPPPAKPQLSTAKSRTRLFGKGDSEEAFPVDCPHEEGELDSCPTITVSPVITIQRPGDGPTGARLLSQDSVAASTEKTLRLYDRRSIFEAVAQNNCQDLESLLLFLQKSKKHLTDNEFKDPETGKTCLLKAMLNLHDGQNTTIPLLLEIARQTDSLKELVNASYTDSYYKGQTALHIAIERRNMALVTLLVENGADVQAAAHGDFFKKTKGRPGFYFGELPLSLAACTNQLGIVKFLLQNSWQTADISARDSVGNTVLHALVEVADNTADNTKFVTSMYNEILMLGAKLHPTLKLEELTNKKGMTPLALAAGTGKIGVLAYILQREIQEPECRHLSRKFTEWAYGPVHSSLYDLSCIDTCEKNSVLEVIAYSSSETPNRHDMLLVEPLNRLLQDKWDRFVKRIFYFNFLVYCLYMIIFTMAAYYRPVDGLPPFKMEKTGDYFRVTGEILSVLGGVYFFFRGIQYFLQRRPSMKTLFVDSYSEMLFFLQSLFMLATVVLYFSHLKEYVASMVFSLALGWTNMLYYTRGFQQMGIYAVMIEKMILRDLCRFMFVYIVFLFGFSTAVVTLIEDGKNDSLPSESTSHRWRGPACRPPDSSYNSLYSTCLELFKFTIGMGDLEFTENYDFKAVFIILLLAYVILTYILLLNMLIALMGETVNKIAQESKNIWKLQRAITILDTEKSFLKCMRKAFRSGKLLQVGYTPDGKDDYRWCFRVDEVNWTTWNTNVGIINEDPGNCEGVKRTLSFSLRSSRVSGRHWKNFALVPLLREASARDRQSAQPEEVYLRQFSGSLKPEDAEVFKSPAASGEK

vanilloid receptor (VR1) = molecular target: T2, vanilloid receptor (VR1) (Homo sapiens, UniProt Q8NER1); experiment: Functional FLIPR Ca2+ influx assay in CHO-K1 cells transfected with the VR1 gene, capsaicin stimulus (Pharmacological Method II); settings: read-out: inhibition (in percent), Human Capsaicin
T2 construct: expressed in transfected cells; host or cells: CHO-K1 cells (ECACC), stably transfected
T2 sequence (Q8NER1 whole entry): as above

Ki ([1]; capsaicin stimulus) [nM]	inhibition at 5 µM [2] [%]	inhibition at 10 µM [2] [%]	inhibition at 0.1 µM (vanilloid receptor (VR1); @ 0.1 μM) [%]	inhibition at 1 µM (vanilloid receptor (VR1)) [%]	inhibition at 5 µM (vanilloid receptor (VR1)) [%]	inhibition at 1 µM ([1]; @ 1 μM, capsaicin, read-out: inhibition (in percent), Rat Capsaicin) [%]	inhibition at 5 µM ([1]; @ 5 μM, capsaicin, read-out: inhibition (in percent), Rat Capsaicin) [%]	Compound
117	4	33	0	20	77			CS(=O)(=O)Nc1ccc(C2(C(=O)NCc3ccc(C(F)(F)F)nc3SC3CCCCC3)CCCC2)cc1F [Example 14, N-((2-(Cyclohexylthio)-6-(trifluoromethyl)pyridin-3-yl)methyl)-1-(3-fluoro-4-(methylsulfonamido)phenyl)cyclopentanecarboxamide]
	7	32		0	33	7	69	CC1CCN(c2nc(C(F)(F)F)ccc2CNC(=O)C2(c3ccc(NS(C)(=O)=O)c(F)c3)CCCCC2)CC1 [Example 15, 1-(3-Fluoro-4-(methylsulfonamido)phenyl)-N-((2-(4-methylpiperidin-1-yl)-6-(trifluoromethyl)pyridin-3-yl)methyl)cyclohexanecarboxamide]
